# Test system: hepatocytes
# Assay: Seq-Well scRNA-Seq of hepatocytes after APAP overdose (signature scores, DEG vs untreated)
# Type: in vivo, mouse
# Settings: APAP vs UT
compound,measurement,setting,value
"CC(=O)Nc1ccc(O)cc1 [APAP, acetaminophen]",Tm7sf2 logFC,composite DEG,−0.3164
same,Tmbim4 logFC,composite DEG,0.3227
same,Tmbim6 logFC,composite DEG,0.3387
same,Tmed5 logFC,composite DEG,0.4016
same,Tmem14c logFC,composite DEG,−0.3685
same,Tmem37 logFC,composite DEG,−0.2822
same,Tmem56 logFC,composite DEG,1
same,Tmem147 logFC,composite DEG,−0.2838
same,Tmem160 logFC,composite DEG,−0.339
same,Tmem205 logFC,composite DEG,−0.7747
same,Tmem243 logFC,composite DEG,−0.3791
same,Tmem258 logFC,composite DEG,−0.2769
same,Tmprss6 logFC,composite DEG,−0.2802
same,Tmsb4x logFC,composite DEG,0.7806
same,Tnks2 logFC,composite DEG,0.3176
same,Tns1 logFC,composite DEG,0.4349
same,Tob1 logFC,composite DEG,−0.3387
same,Tomm70a logFC,composite DEG,0.2688
same,Tpr logFC,composite DEG,0.4409
same,Trf logFC,composite DEG,−0.2619
same,Trib1 logFC,composite DEG,0.3317
same,Trp53inp1 logFC,composite DEG,1.008
same,Tsc22d1 logFC,composite DEG,−0.2997
same,Tspan31 logFC,composite DEG,−0.2959
same,Tspo logFC,composite DEG,−0.3157
same,Ttc36 logFC,composite DEG,−0.6606
same,Tubb6 logFC,composite DEG,0.5767
same,Txn1 logFC,composite DEG,−0.3091
same,Txndc5 logFC,composite DEG,0.2901
same,Txnrd1 logFC,composite DEG,1.444
same,Tyrobp logFC,composite DEG,0.4666
same,Ubb logFC,composite DEG,−0.275
same,Ubc logFC,composite DEG,−0.6618
same,Ubl5 logFC,composite DEG,−0.3033
same,Ubr4 logFC,composite DEG,0.3301
same,Ugp2 logFC,composite DEG,0.2973
same,Ugt2b1 logFC,composite DEG,−0.7768
same,Ugt2b5 logFC,composite DEG,−0.6034
same,Ugt2b36 logFC,composite DEG,−0.5834
same,Uhrf1bp1l logFC,composite DEG,0.4198
same,Uqcc2 logFC,composite DEG,−0.3269
same,Uqcrb logFC,composite DEG,−0.4084
same,Uqcrq logFC,composite DEG,−0.8867
same,Urah logFC,composite DEG,−0.7641
same,Uroc1 logFC,composite DEG,0.4162
same,Vcam1 logFC,composite DEG,0.4574
same,Vnn3 logFC,composite DEG,0.2765
same,Vtn logFC,composite DEG,0.3338
same,Wbp1l logFC,composite DEG,0.5535
same,Wdr26 logFC,composite DEG,0.4325
same,Wdr43 logFC,composite DEG,0.3438
same,Xiap logFC,composite DEG,0.2602
same,Yap1 logFC,composite DEG,0.3281
same,Zbtb20 logFC,composite DEG,0.4715
same,Zfp91 logFC,composite DEG,0.3707
same,Zyx logFC,composite DEG,0.2983
same,mmu-mir-6240 logFC,composite DEG,1.101
same,mt-Co3 logFC,composite DEG,−1.167
same,0610007P14Rik logFC,A24logFC,−0.257
same,1110058L19Rik logFC,A24logFC,−0.2581
same,4931406C07Rik logFC,A24logFC,−0.2544
same,4932438A13Rik logFC,A24logFC,0.2879
same,2810428115Rik logFC,A24logFC,−0.2631
same,Abcb11 logFC,A24logFC,−0.2618
same,Abcc2 logFC,A24logFC,0.2897
same,Abce1 logFC,A24logFC,0.28
same,Abcf1 logFC,A24logFC,0.3032
same,Abcg2 logFC,A24logFC,−0.2809
same,Acaa1a logFC,A24logFC,−0.3018
same,Acat3 logFC,A24logFC,−0.3115
same,Acot13 logFC,A24logFC,−0.2886
same,Acsm5 logFC,A24logFC,−0.2614
same,Actr3 logFC,A24logFC,0.276
same,Aes logFC,A24logFC,−0.2642
same,Anxa5 logFC,A24logFC,0.3654
same,Apof logFC,A24logFC,−0.2522
same,Arhgdia logFC,A24logFC,0.2563
same,Ash11 logFC,A24logFC,0.2657
same,Atf4 logFC,A24logFC,0.3411
same,Bc1af1 logFC,A24logFC,0.2685
same,Bdhl logFC,A24logFC,−0.2936
same,C6 logFC,A24logFC,−0.267
same,C1d logFC,A24logFC,−0.2553
same,Cap1 logFC,A24logFC,0.3251
same,Ccdc50 logFC,A24logFC,0.2858
same,Ccnl1 logFC,A24logFC,0.2566
same,Cdh1 logFC,A24logFC,0.2697
same,Cep85 logFC,A24logFC,0.2839
same,Chmp4b logFC,A24logFC,0.3002
same,Chuk logFC,A24logFC,0.3724
same,Clic4 logFC,A24logFC,0.2998
same,Coasy logFC,A24logFC,−0.2534
same,Commd3 logFC,A24logFC,−0.2656
same,Csrp3 logFC,A24logFC,−0.294
same,Ctnnd1 logFC,A24logFC,0.2518
same,Ctsc logFC,A24logFC,0.361
same,Cu11 logFC,A24logFC,0.2592
same,Cu13 logFC,A24logFC,0.2788
same,Cybb logFC,A24logFC,0.3778
same,Dcaf11 logFC,A24logFC,−0.2817
same,Ddost logFC,A24logFC,0.2504

# Reference: US20230053540A1, “TREATMENT OF LIVER INJURY” (Massachusetts Institute of Technology, priority 2019, published 2023)
